{"source": "patent US20150017665A1", "about": "“Peptides and Methods for Detecting MPO-ANCA” (The University of North Carolina at Chapel Hill, priority 2012, published 2015)", "molecules": {"B1": {"name": "digested CP: ceruloplasmin digested with plasmin in vitro to produce a 50 kD fragment (protein)", "chain": "SVPPSASHVAPTETFTYEWTVPKEVGPTNADPVCLAKMYYSAVEPTKDIFTGLIGPMKICKKGSLHANGRQKDVDKEFYLFPTVFDENESLLLEDNIRMFTTAPDQVDKEDEDFQESNKMHSMNGFMYGNQPGLTMCKGDSVVWYLFSAGNEADVHGIYFSGNTYLWRGERRDTANLFPQTSLTLHMWPDTEGTFNVECLTTDHYTGGMKQKYTVNQCRRQSEDSTFYLGERTYYIAAVEVEWDYSPQREWEKELHHLQEQNVSNAFLDKGEFYIGSKYKKVVYRQYTDSTFRVPVERKAEEEHLGILGPQLHADVGDKVKIIFKNMATRPYSIHAHGVQTESSTVTPTLPGETLTYVWKIPERSGAGTEDSACIPWAYYSTVDQVKDLYSGLIGPLIVCRRPYL"}}, "key": {"MPO-ANCA [1]": {"test_system": "MPO-ANCA", "assay": "Epitope excision MALDI-TOF/TOF MS of patient and healthy Ig with native MPO", "assay_type": "binding", "parameters": "key: HC: Healthy control; Active disease; Remission", "conditions": "human Ig", "from_the_text": "Total immunoglobulin (IgG) was purified from sera using protein A/G PLUS-Agarose Reagent according to commercial protocol (Santa Cruz Biotechnology). Purified IgG was immobilized on CNBr-activated Sepharose 4B (GE Healthcare) in compact reaction columns (CRC, USB Corporation) and exposed to native MPO protein (MPO, Elastin Products Co, Inc) followed by digestion with sequencing grade TPCK-treated trypsin (Worthington). MPO-peptides remaining bound to IgG after digestion were eluted with 0.1% trifluoro acetic acid and analyzed on a 4800 Plus Matrix-Assisted Laser Desorption Ionization Time of Flight Mass Spectrometry (MALDI TOF/TOF MS/MS) in conjunction with ProteinPilot software (AB SCIEX).\nTo identify epitopes of low titer autoantibodies, ^18O labeling (Mirza et al., J. Proteome Res. 7:3042 (2008)) was used to differentiate between the signal and the noise in the MS and MSMS spectra using the 4 Da shifts between the corresponding spectra of labeled and non-labeled peptides. Mass spectrometry analysis for epitopes recognized by MPO autoantibodies from healthy individuals, and for detection of low ANCA titers in remission samples required the use of isotope H2^18O to increase sensitivity (Cambridge Isotope Laboratories). Samples from healthy individuals (n=10) and MPO-ANCA patients in clinical remission (n=35) were processed in the presence of H2^18O. Incorporation of H2^18O on the carboxyl terminus of each proteolytic fragment of MPO during tryptic digestion, trypsin buffer was made with the isotope H2^18O as a diluent.\nMPO-ANCA positive patients (n=45) from the University of North Carolina cohort (UNC) were analyzed in the initial studies. Demographics of the cohort (Table 2) indicate a predominantly Caucasian group. Approximately 40% are diagnosed with microscopic polyangiitis (MPA), 40% with renal-limited disease and 20% are diagnosed with granulomatosis with polyangiitis (GPA). To compare epitope specificities related to disease activity, longitudinal samples were analyzed to include active disease (n=52) and remission (n=35) from the UNC cohort (Tables 3 and 4). Ten healthy subjects were included in the analyses. Purified immunoglobulin (Ig) from sera samples was subjected to analysis by epitope excision MALDI-TOF/TOF mass spectrometry (depicted in FIG. 3A) to identify epitope profiles of autoantibodies reactive with MPO. In order to epitope map low titer anti-MPO antibodies from healthy subjects and from patients in disease remission, an approach was designed using the ^16O-to-^18O exchange technique, an adaptation of a proteomics-based quantification method (Mirza et al., J. Proteome Res. 7:3042 (2008)). Incorporation of H2^18O on the carboxyl termini of proteolytic fragments produces a 4 Da mass shift in the MS spectra, decipherable from background noise. MPO epitopes unique to Ig from patients with active disease were designated ‘exclusive to active disease’; epitopes identified in remission samples were designated ‘persistent during remission’; and those present in samples from healthy subjects were designated asymptomatic or ‘natural’."}, "[2]": {"test_system": "IgG from ANCA-negative AAV patients", "assay": "Epitope excision MS of ANCA-negative IgG with whole leukocyte lysate", "assay_type": "binding, human", "conditions": "total Ig from ANCA-negative AAV patients", "protocol": "(§1) Mass spectrometry analysis of ANCA-negative IgG and mouse IgG samples were conducted as above. With the exception of protein substrate, immobilized ANCA-negative IgG were exposed to whole leukocyte lysate preparation from a healthy donor and mouse IgG to recombinant mouse MPO (R&D Systems).\nA variation of epitope excision MS for MPO-ANCA was adapted into a ‘discovery’ tool for identifying unknown autoantigens in ANCA-negative AAV, which presents clinically as vasculitis although with a negative serology for MPO-ANCA and PR3-ANCA. ANCA-negative AAV patients were identified by retrospective review of the medical records, with criteria of histological evidence of vasculitis and negative serological test results from the UNC Hospital clinical laboratory. As an additional measure, sera samples selected for analysis were retested for ANCA reactivity by the laboratory of Dr. John Niles, Massachusetts General Hospital, Boston, USA and were confirmed to be ANCA-negative. Protein lysate of total peripheral blood leukocytes were probed for antigen/s that were reactive with purified total Ig from ANCA-negative AAV patients' sera (FIG. 5A). […] MPO-ANCA specific for this epitope were detected by ELISA using isolated Ig from 8/10 UNC AAV patients and from 6/11 NL AAV patients (Table 2)."}, "MPO-ANCA [3]": {"test_system": "MPO-ANCA", "assay": "Peptide ELISA with total IgG (Chapel Hill and Groningen)", "assay_type": "binding, human", "conditions": "for MPO-ANCA specific for the epitope detected by ELISA, patients positive/tested: isolated Ig", "protocol": "A total of 195 IgG samples were tested by native MPO or peptide ELISA. Samples included those from healthy controls (n=59), active disease (n=80) and remission patients (n=56). Total IgG was added to wells (2 μg/well) precoated with 1-2 μg peptide (UNC-CH peptide synthesis core). Goat anti-human with alkaline phosphatase conjugate secondary antibody specific to IgG (H+L) (Millipore, Billerica, Mass.) (1:10,000) was added and detected using 1-Step PNPP substrate (Thermo Scientific) and read at λ=405 nm after 30 min. Identical peptides were used in ELISAs at both locations; all other substrates used to test NL cohort samples by ELISAs were prepared in Groningen. Total IgG (1:500˜2 mg/well) was added to precoated wells blocked with 1% BSA. Secondary antibody, goat anti-human conjugated with alkaline phosphatase (A5403; Sigma-Aldrich) (1:5000), was added and detected using p-nitrophenyl-phosphate disodium substrate."}, "[4]": {"test_system": "anti-MPO antibodies of immunized DR2 Tg mice", "assay": "Epitope excision MS of IgG from immunized DR2 Tg mice with recombinant mouse MPO", "assay_type": "binding", "conditions": "DR2 Tg mice immunized with MPO aa442-460", "protocol": "as §1\nAs HLA-MHC II help shape the B and T cell repertoires, and consequently the response to foreign and self-antigens, we wanted to define the epitope specificity of the anti-MPO autoantibodies that could be induced experimentally using DR2 Tg mice. In this way, we could assess development of the anti-MPO antibody response after immunization of a single epitope in the context of a human MHC II. IgG from sera of immunized mice was profiled for anti-MPO epitope specificity using epitope excision MS. DR2 Tg mice developed antibodies targeting the human B cell epitope aa447-459 which is within a conserved region of both murine and human MPO. Unpredictably, immunized DR2 Tg mice initiated a polyclonal response producing autoantibodies against the entire MPO molecule. The epitope profile was astonishingly similar to that of the MPO-ANCA human profile (Table 6), indicative of the critical nature of this epitope."}, "DR2 Tg mice": {"test_system": "DR2 Tg mice", "assay": "Actively induced anti-MPO associated glomerulonephritis (peptide immunization)", "assay_type": "in vivo, mouse", "conditions": "day 28", "protocol": "DR2 Tg mice (Ooi et al., Proc. Natl. Acad. Sci. USA 109:E2615 (2012); Rich et al., Eur. J. Immunol. 34:1251 (2004)) were immunized s.c. with 3×100 μg of peptide antigen (OVA323-339, n=4 or MPO442-460, n=10) first in FCA then FIA on days 0, 7 and 14. Mice were culled on day 28.\nFor indirect immunofluorescence, ethanol fixed thioglycolate induced peritoneal neutrophils were cytospun onto slides, purified serum IgG (1 mg/ml) was applied for 20 minutes then anti-mouse IgG Ab was detected using FITC conjugated anti-mouse IgG Ab (Silenus) (Ooi et al., Proc. Natl. Acad. Sci. USA 109:E2615 (2012); Lock, J. Clin. Pathol. 47:4 (1994)). Albuminuria was assessed by ELISA (Bethyl Laboratories) and haematuria assessed by urine test strips (Combur) from a 24 hour urine sample. Blood urea nitrogen (BUN) was measured using standard laboratory methods on serum collected at the end of experiment. Glomerular abnormalities assessed, on […], PAS stained, formalin fixed, paraffin embedded sections (≧50 glomeruli/mouse), were thickening of the capillary walls and mesangial hypercellularity (Ooi et al., J. Am. Soc. Nephrol. 20:980 (2009)). Total glomerular cell nuclei were enumerated (≧20 glomeruli/mouse). Glomerular neutrophils were detected by immunoperoxidase staining of 6 μm thick, periodate lysine paraformaldehyde fixed, frozen kidney sections using anti-Gr-1 antibodies (RB6-8C5)."}, "[5]": {"test_system": "anti-MPO^447-459 autoantibody", "assay": "Epitope masking ELISA with ceruloplasmin and its fragments", "assay_type": "binding, human", "from_the_text": "Serum proteins that bound immobilized MPO peptide aa447-459 were eluted and sequenced for identification. […] Sequenced on a 4800 MALDI TOF-TOF, the protein was identified as ceruloplasmin (CP), and confirmed by western blot analysis probed with a rabbit anti-human anti-CP polyclonal antibody (Abeam). Native CP was purchased (Enzo Life Science) and proteolytically digested in vitro by plasmin (Haemtech).\n(§2) To isolate the putative serum factor, immobilized MPO aa447-459 peptide was used as bait to fish-out host proteins with binding capacity. […] However, the CP bound to aa447-459 was primarily a 50 kD protein on sodium dodecyl sulfate polyacrylamide gel electrophoresis (SDS-PAGE), while full length CP is 151 kD (FIG. 6D). An anti-ceruloplasmin western blot confirmed the fragment to be a portion of CP (FIG. 6E). To test the role of proteolytic cleavage in generating the blocking factor, a plasmin-generated fragment of CP (Kingston et al., Proc. Natl. Acad. Sci. USA 74:5377 (1977)) was tested for epitope masking capability (FIG. 6F)."}, "[6]": {"test_system": "MPO-ANCA IgG (polyclonal)", "assay": "Effect of CP on binding of polyclonal MPO-ANCA Ig to native MPO (ELISA)", "parameters": "species or system human", "conditions": "MPO-ANCA IgG from four patients", "from_the_text": "as §2"}}}
{"molecule": "RKIVGAMVQIITY (listed as Homo sapiens) [aa447-459]", "values": [{"measurement": "Found in samples: Healthy control, Active disease, or Remission, (HC, A, R)", "setting": "MPO-ANCA [1]; Table 1", "value": "A"}, {"measurement": "Found in samples: Healthy control, Active disease, or Remission, (HC, A, R)", "setting": "MPO-ANCA [1]; Table 6", "value": "A"}, {"measurement": "peptide eluted from ANCA-negative Ig (MS)", "setting": "[2]", "value": "A sole peptide was eluted and identified"}, {"measurement": "level of ELISA reactivity versus disease activity", "setting": "MPO-ANCA [3]; ANCA-negative patients, UNC (n=4) and NL (n=5), longitudinal", "value": "corresponded well with disease activity, declining to low levels as patients entered disease remission"}, {"measurement": "share of MPO-ANCA positive AAV patients with active disease in whom the epitope was identified", "setting": "MPO-ANCA [3]; MPO-ANCA positive AAV, active disease", "value": "~50", "unit": "%"}, {"measurement": "reactivity by ELISA, share of patient samples", "setting": "MPO-ANCA [3]; NL population, active disease", "value": 52.2, "unit": "%"}, {"measurement": "reactivity by ELISA, share of patient samples", "setting": "MPO-ANCA [3]; UNC MPO-ANCA patient samples, active disease", "value": 42.9, "unit": "%"}, {"measurement": "ELISA reactivity in clinical remission", "setting": "MPO-ANCA [3]; UNC and NL cohorts, remission samples", "value": "Reactivity declined in clinical remission"}, {"measurement": "MPO-ANCA specific for the epitope detected by ELISA, patients positive/tested", "setting": "MPO-ANCA [3]; ANCA-negative NL AAV patients", "value": "6/11"}, {"measurement": "MPO-ANCA specific for the epitope detected by ELISA, patients positive/tested", "setting": "MPO-ANCA [3]; ANCA-negative UNC AAV patients", "value": "8/10"}, {"measurement": "Epitopes found in immunized mice", "setting": "[4]", "value": "RKIVGAMVQIITY"}, {"measurement": "glomerular disease", "setting": "DR2 Tg mice", "value": "develop glomerulonephritis"}]}
{"molecule": "thrombin [reference compound]", "values": [{"measurement": "generation of a functional (blocking) ceruloplasmin fragment by serum proteases", "setting": "[5]", "value": "did not"}]}
{"molecule": "urokinase [reference compound]", "values": [{"measurement": "generation of a functional (blocking) ceruloplasmin fragment by serum proteases", "setting": "[5]", "value": "produced a functional fragment"}]}
{"molecule": "B1", "values": [{"measurement": "effect on binding of polyclonal MPO-ANCA Ig to native MPO", "setting": "[6]", "value": "did not affect the overall binding"}, {"measurement": "decrease of anti-MPO^447-459 autoantibody reactivity", "setting": "[5]; ELISA, n=8", "value": "30-50%"}]}
